In brackets after ≈: the same amount, converted by molar mass.
Experiments:
[1] = test system: Rattus norvegicus; conditions: for LD50: acute, mortality
[2] = test system: Apis mellifera; conditions: acute, mortality
[3] = test system: Hypoaspis aculeifer; conditions: chronic/long-term; duration: 14 days; reproduction
[4] = test system: Anomia sp.; conditions: acute; duration: 96 hours; mortality
[5] = test system: Daphnia magna; conditions: chronic/long-term; duration: 21 days
[6] = test system: Anas platyrhynchos; conditions: acute; oral; unspecified; mortality
[7] = test system: Gammaridae; conditions: chronic/long-term; duration: 28 days
[8] = test system: Tagia sp.
[9] = test system: Colinus virginianus
[10] = test system: Cyprinodon variegatus; conditions: acute; duration: 96 hours; mortality
[11] = test system: Oncorhynchus mykiss; conditions: chronic/long-term; duration: 89 days; mortality
[12] = test system: Canidae; conditions: oral, Dog Other
[13] = test system: Aphidius rhopalosiphi; experiment: LR50; higher = less toxic; conditions: not reported; mortality

SMILES: CCOc1cc(C(C)(C)C)ccc1C(N)COC(=O)c1c(F)cccc1F (stereo not given)
- LD50 [1]: > 5000 mg/kg

SMILES: CCOc1cc(C(C)(C)C)ccc1C1COC(c2c(F)cccc2F)=N1 (stereo not given) [Etoxazole]
- LD50 ([2]; dermal): > 200 µg/piece
- LD50 ([2]; oral, unspecified): > 200 µg/piece
- LD50 ([1]; oral): > 5000 mg/kg
- NOAEL ([1]; chronic, duration: 2 years): 4 mg/kg-day
- NOAEL ([1]; reproduction developmental, organ weight): 24.5 mg/kg-day
- NOEC [3]: 0.2 mg/kg
- LC50 [4]: 4.3 ng/mL (≈ 0.012 µM)
- NOEC [5]: 0.00013 mg/L
- LD50 [6]: > 2000 mg/kg
- NOEC [7]: 0.86 mg/kg
- LC50 ([8]; acute, duration: 14 days, mortality): > 1000 mg/kg
- NOEC ([8]; chronic/long-term, duration: 56 days, reproduction): 5 mg/kg
- LC50 ([9]; acute, oral, diet, mortality): 1270 mg/kg-day
- NOEC ([9]; chronic): 28.6 mg/kg-day
- LC50 [10]: > 160 ng/mL
- NOEC [11]: 0.015 mg/L
- NOAEL ([12]; chronic, duration: 1 years): 5 mg/kg-day
- NOAEL ([12]; subchronic, duration: 90 days): 5 mg/kg-day
- LR50 [13]: > 55 g/ha
